The source of these data is PMC9246869, “Allosteric inhibition of PPM1D serine/threonine phosphatase via an altered conformational state” (Nature Communications, 2022).

By Kd is commonly meant a measure of binding affinity in units of concentration. The koff is the first-order rate constant of dissociation. As a reminder, the kon is the second-order rate constant of association. The solubility is how much of the substance goes into solution per volume. Read a low solubility as a poorly soluble substance. What is called IC50 is the point on the concentration scale where inhibition reaches its midpoint. The low end stands for inhibition by little substance, the high end for a need for much substance.

SMILES strings stand for the structures. Values joined by “and” are separate entries in the source; they are usually repeats but may differ in a detail not shown here. Identical values can stand only once. Bounds are passed on as bounds.

For data set [1], the target named is T1, PPM1D1–420 (Homo sapiens, UniProt O15297).
T1 construct: PPM1D1–420 was PCR-amplified from the synthesized gene with BsaI sites; His(6)-SUMO (N, cleaved yes); made in house; host or cells: E. coli BL21 (DE3)
T1 sequence (O15297 1-420): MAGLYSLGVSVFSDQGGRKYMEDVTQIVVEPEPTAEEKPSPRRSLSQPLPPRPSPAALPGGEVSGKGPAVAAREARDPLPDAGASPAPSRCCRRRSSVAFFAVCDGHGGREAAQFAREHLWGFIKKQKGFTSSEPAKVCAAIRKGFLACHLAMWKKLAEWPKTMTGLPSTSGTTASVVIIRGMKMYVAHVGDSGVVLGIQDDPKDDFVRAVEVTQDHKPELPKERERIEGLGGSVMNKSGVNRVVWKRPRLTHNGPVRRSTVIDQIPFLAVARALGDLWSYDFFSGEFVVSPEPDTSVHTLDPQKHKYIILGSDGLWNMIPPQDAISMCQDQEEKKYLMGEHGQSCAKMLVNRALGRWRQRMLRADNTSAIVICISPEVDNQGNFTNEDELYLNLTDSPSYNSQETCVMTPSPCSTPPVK
The experiment in a line: Surface plasmon resonance (SPR). It is filed as binding. On the procedure:
SPR was carried out on the Biacore S200 (GE Healthcare) using Series S sensor chip NTA (GE BR-1005-32). The preparation of the chip surface was conducted according to the manufacturer’s indications. The running buffer contained 50 mM Tris (pH 7.5), 50 mM NaCl, 1 mM MgCl2, 0.5 mM TCEP, 0.005% (v/v) P20 surfactant, and 2% DMSO. PPM1D1–420 and PPM1D∆Flap were run under single-cycle mode due to the slow-off-rate kinetics. The two proteins were immobilized on the chip surface in flow cells 2 and 3 with a signal of ~1500–2000 RU at a rate of 5 μL/min while flow cell 1 was left blank as a reference. The running buffer was injected three times followed by the GSK2830371 analyte in solution. Injections were carried out at a flow rate of 50 μL/min with the analyte in a concentration series of 5-point, 3-fold ending at 400 nM top dose. The association and dissociation phases were monitored for 90 s and 600 s, respectively. Collected data were evaluated using the Biacore S200 Evaluation Software under 1:1 binding mode. PPM1D∆Hinge was run under multi-cycle mode due to its fast-on/fast-off kinetics. The protein was immobilized to give a signal of ~ 3000 RU. GSK2830371 analyte in solution was injected at a flow rate of 90 μL/min in a 10-pt, 2-fold concentration series ending at 15 μM top dose. The association and dissociation phases were monitored for 45 s and 150 s, respectively. Since GSK2830371 had issues with solubility/aggregation at high concentrations that caused artifacts in sensorgrams, only steady-state analysis was performed to extract Kd.

The nature of a further data set: Solubility. It is filed as physicochemical.
The target of data set [2] is T1, PPM1D1–420. The experiment in a line: p38 MAPK enzymatic assay (LC/MS, dephosphorylation of T180). It is filed as biochemical. The following applies: PPM1D1–420; full length p38 MAPK substrate, LC/MS. On the procedure: To generate the double phosphorylated form of p38 MAPK for the LC/MS enzymatic PPM1D assay, 20 µM p38 MAPK was incubated with 100 nM MKK6 in 50 mM HEPES pH 7.4, 10 mM ATP, 40 mM MgCl2, and 100 µM TCEP at RT for 2 h. The reaction mixture was diluted 2-fold with 20 mM HEPES pH 7.4, 300 mM NaCl, 100 µM TCEP, and 1 mM MgCl2 and passed over a Superdex 200 26/600 column equilibrated with 20 mM HEPES pH 7.4, 150 mM NaCl, 100 µM TCEP, and 1 mM MgCl2 to remove excess ATP and MKK6 from the phosphorylated p38 MAPK (p38PP) protein. The protein was concentrated and stored in aliquots for single time usage at −80 °C.
The enzymatic activity of the PPM1D constructs was measured by quantifying the dephosphorylation of the substrate protein p38PP by LC/MS. Assays were run in 384-well plates (Axygen; #P-384-120SQ-C) in a final volume of 80 µL per well. The buffer consisted of 20 mM HEPES, 20 mM NaCl, 20 mM MgCl2 and 0.1 mM TCEP, at a pH of 7.5. The reaction was initiated by addition of the p38PP substrate to a solution containing 10 nM PPM1D to a final concentration of 300 nM for p38PP. The plate was then incubated at room temperature and the reaction quenched after 15 min increments with formic acid to a final concentration of 6% (v/v) up to 120 min. For IC50 measurements, the GSK2830371 compound was pre-incubated with the PPM1D constructs in a 2% DMSO-containing buffer for 10 min prior to the addition of the substrate and the reactions were quenched after 2 h. In both experiments, BSA was added to a final concentration of 0.2 µM during the quench step as a carrier protein and injection control for the LC/MS. The plate was then sealed and spun down at 1500 × g for 1 min prior to LC/MS analysis. Plates were analyzed within the same day of the quench step.
Substrate and product detection was achieved by multiple-reaction monitoring (MRM) using a Waters Acquity UPLC chromatography system connected to an Xevo TQ-XS mass spectrometer (Waters, Milford, MA). Source parameters were set as follows: polarity ES+, capillary 2.0 kV, cone voltage, 50 V; collision energy, 5 V; cone gas flow, 200 L/h; collision gas flow, 0.16 mL/min; source temperature, 150 °C; desolvation temperature, 500 °C; and desolvation gas flow, 800 L/h. Analytes were separated using an Agilent PLRP-S Reversed-Phase column (5 µm; 2.1 × 50 mm, 300 Å Agilent Technologies, Santa Clara, CA) at 60 °C. Sample storage temperature was set to 15 °C. Mobile phases consisted of 0.1% (v/v) formic acid (Millipore EMSURE) in LC/MS grade water (JTBaker) and 0.1% v/v formic acid in acetonitrile (Honeywell). Initial column conditions were set to […]. Proteins were eluted using a 1.5 min gradient of 5–98% acetonitrile at 0.4 ml/min. MassLynx and TargetLynx software (Waters, version 4.2) were used for sample acquisition and data analysis, respectively. Analytes were quantified by integration of peak areas under the curve using the transitions 941.10 to 941.05 m/z for P38PP (substrate) and 939.10 to 939.09 m/z for P38P (product). Areas were normalized for instrumental variation by dividing by the BSA peak area (1209.23 to 1209.2 m/z transition) measured in the same well.

The target in data set [3] is T1, PPM1D1–420. Kind of data set: Isothermal titration calorimetry (ITC). It is filed as binding. To be noted: PPM1D1–420; 25 °C. The procedure:
Assessments of the analog of GSK2830371 (analog 1d) binding to wild-type and mutant proteins were conducted using an Auto-iTC200 microcalorimeter (Malvern) (see section on synthesis of analog 1d below). The protein was dialyzed extensively into 25 mM HEPES (pH 7.4), 150 mM NaCl, 10 mM MgCl2 and 1 mM TCEP. The dialyzed protein was used to prepare fresh working solutions of protein (20 µM) and analog 1d (200 µM) in 2% DMSO (v/v) in the same buffer. Titrations were performed at 25 °C and consisted of a single initial injection of 0.4 µL, followed by 19 injections of 2 µL of compound into a sample cell containing wild-type or mutant PPM1D, with an interval of 150 s between successive injections. The reference power and stirring speed were set at […] and 1000 RPM, respectively. Heat of dilution and mixing were obtained from injections of analog 1d into ITC buffer lacking protein and subtracted from the integrated data before curve fitting. Thermodynamic data were analyzed using Origin 7.0 software and fitted by non-linear regression to the model for a single binding site.

For the molecule `NCCCCNC(=O)[C@H](CC1CCCCC1)NC(=O)c1ccc(CNc2cc(Cl)ccn2)s1` [analog 1d], the Kd at PPM1D1–420 [1] (PPM1D1–420, single-cycle kinetics for GSK2830371, read-out: Kd (SPR)) is 0.0027 µM; at PPM1D1–420 [3] it was 0.0109 µM and 0.01 µM. On PPM1D1–420 [1] (SPR kinetics fit, Sup Fig 3B, read-out: koff), the dissociation rate constant (koff) is 0.0015 s⁻¹. Further, the association rate constant (kon) on PPM1D1–420 [1] (SPR kinetics fit, Sup Fig 3B, read-out: kon) amounted to 578000 M⁻¹ s⁻¹. Besides, at PPM1D1–420 [1] (SPR steady state, [1d] (nM) 4.94E-09), the “Steady state curve response” value worked out at 2.128. For the same molecule, in the data set “Solubility”, the solubility was > 100 µM. Also, inhibition against PPM1D1–420 [2] was half-maximal at 0.0224 µM (IC50).
